Source: publication PMC7801115, “Preclinical in vitro screening of newly synthesised amidino substituted benzimidazoles and benzothiazoles” (Journal of Enzyme Inhibition and Medicinal Chemistry, 2021)

Columns and labels:
[1] = system: A549; experiment: BrdU proliferation assay, 2D cell culture; type: cell-based; conditions: Homo sapiens, A549, 2D cell culture, ±SD, N = 2
Protocol: Cells were grown in 96 well cell star polystyrene plates. 10,000 cells/well were seeded in wells 4 h prior the treatment with different compounds concentrations and incubated for 72 h. A cell viability assay was performed according to the manufacturer’s instruction, using CellTiter 96 aqueous solution, MTS kit (Promega, Madison, WI, USA). After 0.5–2 h of cell incubation with MTS in 2 D cell culture, the plates were read using PE EnVision absorbance at 490 nm. The results for each of tested compounds are reported as growth percentages from two independent concentrations curves compared with the untreated control cells after drug exposure. Since we prefer homogeneous assays (mix and read procedures) and therefore MTS is more practical (one step less than MTT). MTS is more sensitive and accurate in comparison with MTT assay.
(§1) Proliferation assay was performed using Cell Proliferation ELISA, BrdU (Sigma, St. Louis, MO, USA). Briefly, 48 h hours after compound addition, 10 µM of BrdU was added to each well and incubated for following 24 h. After incubation, single cell suspension was made for 3 D cell culture in the new 96 well plate. Plates were centrifuged and supernatants were removed from each plate (for 2 D and 3 D cell culture) followed by 60 min incubation at 60° C. The rest of the proliferation assay was performed according to the manufacturer instructions.
(§2) Calculation of IC50 data, curves and QC analysis is made by using Excel tools and GraphPadPrism software (La Jolla, CA), v. 5.03. In brief, individual concentration–effect curves are generated by plotting the logarithm of the tested concentration of tested compounds (X) versus corresponding percent inhibition values (Y) using least squares (ordinary) fit. […] QC criteria parameters (Z', S:B, R2, HillSlope) were checked for every IC50 curve.

[2] = Stability in plasma; type: in vitro ADME; conditions: 37 °C
Protocol: Tested compounds (final concentration of 5 µM, 0.5% DMSO) were incubated for 4 h at 37 °C in human and mouse plasma, respectively. Aliquots were taken at different time points (0, 30, 120 and 240 min) and reaction was terminated by addition of a MeCN/MeOH (2:1) mixture, containing internal standard (diclofenac). Samples were then centrifuged (at 4500 rpm, at 4 °C, for 30 min) and resulting supernatants were subjected to LC-MS/MS analysis. The same procedure was followed for controls used in the assay: propranolol (both species), benfluorex (mouse) and eucatropine (human), respectively.
(§3) All ADME samples were analysed on a Sciex API 4000 or Sciex API4500 Triple Quadrupole Mass Spectrometer (Sciex, Framingham, MA, USA) coupled to a UHPLC System (Shimadzu Nexera X2; Shimadzu, Kyoto, Japan). Samples were injected onto an UPLC column (HALO2 C18, 2.1 × 20 mm, 2 µm or Phenomenex Luna Omega Polar C18, 30 × 2.1 mm, 1.6 µm) and eluted with a gradient at temperature of 50 °C. The mobile phase was composed of acetonitrile (with 0.1% formic acid) and 0.1% formic acid in deionised water. A total run time was 1 or 1.5 min, with the flow rate of 0.7 ml/min (under gradient conditions). A positive ion mode with turbo spray, an ion source temperature of 500 °C and a dwell time of 150 ms were utilised for mass spectrometric detection. Multiple reaction monitoring (MRM) was used at the specific transitions for each compound/control tested: compound 5c: 361.9 → 304.9; compound 5d: 344.8 → 287.9; compound 5e: 349.8 → 292.9; compound 5 g: 350.8 → 293.9; compound 5 h: 344.0 → 286.9; compound 6a: 276.9 → 220.0; compound 5 b: 319.0 → 262.0; compound 6 b: 302.1 → 245.1; compound 6c: 344.9 → 288.0; compound 6d: 333.0 → 276.0; compound 6e: 316.1 → 259.0; compound 6f: 327.1 → 270.0; compound 6 g: 377.1 → 320.1; testosterone: 289.3→ 97.1; propranolol: 260.1 → 182.8; caffeine: 195.2 → 138.1; acebutolol: 337.2 → 116.2, nicardipine: 480.2 → 315.0; verapamil: 455.4 → 165.1; amprenavir: 506.2 → 245.4; diclofenac: 296.1 → 213.7 or 296.2 → 215.3; eucatropine: 292.2 → 109.1; benfluorex: 352.1 → 230.3, and warfarin: 309.2 → 163.2

[3] = Metabolic stability in liver microsomes; type: in vitro ADME; conditions: 60 min
Protocol: Tested compounds (final concentration of 1 µM, 0.1% DMSO), as well as testosterone and propranolol as positive controls and caffeine as negative control were incubated in phosphate buffer (50 mM, pH 7.4) for 60 min at 37 °C with liver microsomes (human and mouse) in the absence and presence of the NADPH cofactor. The NADPH generating system was prepared in phosphate buffer and consisted of nicotinamide adenine dinucleotide phosphate (NADP, 0.38 mM), glucose-6-phosphate (1.49 mM), glucose-6-phosphate dehydrogenase (1.5 U) and magnesium chloride (0.1 mM). Aliquots were taken at different time points (0, 10, 20, 30, 45 and 60 min) and reaction was terminated by addition of a MeCN/MeOH (2:1) mixture, containing diclofenac as internal standard. Samples were then centrifuged (at 4500 rpm, at 4 °C, for 30 min) and resulting supernatants were subjected to LC-MS/MS analysis. The in vitro half life (t½) was determined from the slope of the linear regression of ln % parent compound remaining versus incubation time. In vitro intrinsic clearance, expressed as µl/min/mg liver, was determined from in vitro half life (t½) and normalised for the protein concentration in the incubation mixture. Predicted in vivo hepatic clearance was determined from in vitro intrinsic clearance assuming 52.5 mg of protein/g of liver and using constant values for liver weight/body weight [g/kg] (25.7 for human, 87.5 for mouse) and liver blood flow (LBF) [ml/min/kg] (21 for human and 131 for mouse).
as §3

[4] = system: NCI-H358; experiment: BrdU proliferation assay, 3D cell culture; type: cell-based; conditions: Homo sapiens, NCI-H358, 3D cell culture, ±SD, N = 2
Protocol: (§4) Cells were grown in 96 well Perfecta 3 D hanging drop plates 5000 cell/well for 4 days until spheres were formed (and checked under the microscope). After sphere formation cells were treated with compounds followed by 72 h incubation. Cell viability assay was performed according to the manufacturer’s instruction, using CellTiter GLO 3 D for 3 D cell culture (Promega); cell incubation was 5 min on the shaker followed by 25 min incubation in the dark. Plates were read using PE EnVision luminescence. The results for each of tested compounds are reported as growth percentages from two independent concentrations curves compared with the untreated control cells after drug exposure.
as §1, §2

[5] = system: A549; experiment: BrdU proliferation assay, 3D cell culture; type: cell-based; conditions: Homo sapiens, A549, 3D cell culture, ±SD, N = 2
Protocol: as §4, §1, §2

Question: What does the source list for Cl.c1ccc2cc(-c3nc4ccc(C5=NCCCN5)cc4s3)ccc2c1 [Compound 5h, 2-(Naphthalene-2-yl)-6–(3,4,5,6-tetrahydropyrimidin-1-ium-2-yl)benzothiazole chloride]?
Answer: IC50 [1]: 10 ± 0.78 µM; remaining at 4 h, 5 µM ([2]; human plasma): 74%; remaining at 4 h, 5 µM ([2]; mouse plasma): 85%; Microsomes (1 µM) Predicted in vivo hep CL, Human [3]: <30 %LBF; Microsomes (1 µM) Predicted in vivo hep CL, Mouse [3]: <30 %LBF; melting point: > 300 °C; IC50 [4]: 1 ± 0.81 µM; IC50 [5]: 14 ± 0.06 µM
